The source of these data is patent US20230227484A1, “PYRIMIDINE COMPOUND AS AXL INHIBITOR” (NANJING CHIA TAI TIANQING PHARMACEUTICAL CO., LTD., priority 2020, published 2023).

Series [1] concerns human acute monocytic leukemia cell MV-4-11 xenograft tumor. Description: In-vivo efficacy of compound for MV4-11 xenograft tumor model of nude mouse. The note with it: MV4-11, po.
The subject of series [2] is MV-4-11 (human myeloid monocytic leukemia cell line). Put plainly: Proliferation inhibition activity of compounds to MV-4-11 cells (CellTiter-Glo). Format: cell-based. The settings on record: MV4-11 cells, 72 h dosing. The procedure, abridged: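 MV-4-11 cells, plated 24 h earlier, were exposed 72 h to compounds in 10-point 3-fold dilutions (0.5% DMSO final). Viability read by CellTiter-Glo luminescence; inhibition normalized to blank and untreated controls, IC50 from variable-slope log(inhibitor)-response fit.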
(In general: ATP-based viability assays read luminescence as a measure of living cells.)

Series [3] is described as follows: Pharmacokinetic study of compounds on ICR mice. The format is in vivo. The note with it: mouse, po, male ICR mice, plasma; for AUC(0-t): 10 mg/kg-kg^1 by gavage, read-out: AUC0-24. As for the experimental part: Each compound is prepared with DMSO into a 10 mg/mL stock solution.
Preparation of mixed solvent: Tween 80: PEG400: Water=1:9:90 (v/v/v)
450 μl of the compound DMSO stock solution with a concentration of 10 mg/nmL is accurately sucked into a glass bottle, and added with an appropriate volume of DMSO and mixed solvent, wherein a ratio of the solvent in the final formulation is DMSO: mixed solvent (v/v)=10:90. The mixed solution is vortexed (or ultrasonically treated), and dispersed uniformly to obtain 4.5 mL. administration test solutions with a concentration of 1 mg/nL, respectively.
Male 6-10 week old ICR mice (sourced from: Beijing Vital River Laboratory Animal Technology Co., Ltd.) are taken, 6 mice in each group. The mice are fasted overnight and fed 4 h after the administration. On the day of the experiment, the mice are administrated with 10 mg-kg^1 of compound test solution by gavage. After administration, about 100 μL of blood is harvested from the orbits of the mice at 0 min, 5 mmn, 15 mmn, 30 min, 14 h 2 h, 4 h, 8 h, and 24 h, and placed in EDTA-K2 anticoagulant tubes. The whole blood sample is centrifuged at 1500 to 1600 g for 10 mm, and the plasma obtained by separation is stored in a refrigerator at −40 to −20° C. for biological sample analysis. The blood drug concentration is determined by an LC-MS/MS method.
A non-compartmental model in Pharsight Phoenix 7.0 is used to calculate pharmacokinetic parameters. The specific results are shown in 5 the table below.

Series [4] relates to human acute monocytic leukemia cell MV-4-11 xenograft tumor. Put plainly: In-vivo efficacy of compound for MV4-11 xenograft tumor model of nude mouse. The note with it: MV4-11, po, intragastric 5 mg/kg/d, once a day, end of experiment, MV-4-11 xenograft nude mice; for response vs control in vivo at 5 mg/kg/day: read-out: Relative tumor proliferation rate (% T/C); for inhibition in vivo at 5 mg/kg/day: read-out: Tumor growth inhibition rate (TGI %). On the procedure:
Inhibitory effects of a compound and a positive drug on the in-vivo tumor growth of a xenograft tumor model of a nude mouse on human acute monocytic leukemia cell MV-4-11 are tested.
MV-4-11 cells in a logarithmic growth phase are harvested, resuspended after cell counting, and adjusted in cell concentration to 7.0×10^7 cells/mL. The resuspended solution is injected into the right armpit of the nude mice subcutaneously. Each animal is inoculated with 200 μL (14×10^6 cells) of the suspended solution to establish a MV-4-11 xenograft tumor model. Afer the tumor volume reaches 100-300 mm^3, tumor-bearing mice in good health and similar tumor volume are selected.
The compound and the positive drug are vortexed with a suitable solvent and then ultrasonicated to completely dissolve the compound. Then, an appropriate volume of citric acid buffer is slowly added, and the mixed solution is vortexed to make the solution mixed uniformly to obtain administrative formulations having concentrations of 0.1, 0.5, and 1 mg-mL^−1.
Solvent control group: PEG400 & citric acid buffer (20:80, v:v).
The modeled mice are randomly divided into groups (n=6), and administrated with the relevant compounds and positive drugs on the day of grouping. After 21 days or after the tumor volume of the solvent control group reaches 2000 mm^3, the experiment is terminated (whichever reaches the index first), and the administration volume is 10 mL-kg^−1. Both the compound and the positive drug are administered by gavage, once a day. After the experiment starts, the tumor diameter and animal body weight are measured twice a week, and the tumor volume is calculated.
The tumor volume(TV) calculation formula is: tumor volume(mm^3)=l×w^2/2,
The calculation formula of relative tumor volume(RTV) is: RTV=TVt/TVinitial
The calculation formula of relative tumor proliferation rate (% T/C) is: % T/C=100%×(RTVT/RTVC)

In series [5] the target is T1, AXL kinase (Homo sapiens, UniProt P30530).
T1 construct: purchased Carna 08-107
T1 sequence (P30530 473-894 limits assumed): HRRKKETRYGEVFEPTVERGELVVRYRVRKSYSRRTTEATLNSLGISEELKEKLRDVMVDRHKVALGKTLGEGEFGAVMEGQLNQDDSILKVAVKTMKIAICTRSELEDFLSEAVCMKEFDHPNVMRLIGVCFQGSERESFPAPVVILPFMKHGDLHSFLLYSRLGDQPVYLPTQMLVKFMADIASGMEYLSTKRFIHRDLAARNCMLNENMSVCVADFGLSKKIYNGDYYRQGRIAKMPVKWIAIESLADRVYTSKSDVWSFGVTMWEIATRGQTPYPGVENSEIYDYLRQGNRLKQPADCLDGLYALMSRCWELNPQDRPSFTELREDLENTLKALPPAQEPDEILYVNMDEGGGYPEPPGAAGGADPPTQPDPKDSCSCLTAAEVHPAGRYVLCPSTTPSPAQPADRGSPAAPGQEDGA
Put plainly: Inhibitory activity of compound against AXL kinase (HTRF KinEASE). Format: biochemical. The note with it: AXL enzyme (Carna, 08-107), ATP 15 μM; "<" means below detection limit of the test. Put shortly:
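AXL enzyme (final 0.016 ng/uL) was preincubated with compound (8 concentrations from 1 μM, ½ log steps) for 15 min at room temperature, then reacted with TK Substrate 3-biotin (final 1) and ATP (final 15 μM) for 45 min at 25° C. Phosphorylation was read by HTRF (TK antibody-cryptate, streptavidin-XL665, 1 h); IC50 from variable-slope dose-response fit.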

With `Nc1nc(Nc2ccc3c(c2)CC[C@@H](N2CCCC2)CC3)nn1-c1cc2c(nn1)-c1ccccc1CCC2` [Positive drug 1 (BGB324), BGB324], the inhibition in vivo at 20 mg/kg/day in series [1] (intragastric 20 mg/kg/d, once a day, end of experiment, MV-4-11 xenograft nude mice, read-out: Tumor growth inhibition rate (TGI %)) is 32%. For the same compound, the response vs control in vivo at 20 mg/kg/day in series [1] (read-out: Relative tumor proliferation rate (% T/C)) was 71%. For the same compound, in series [2], the IC50 (usually the concentration that inhibits the measured activity by half) is 208 nM.

As to `CN1CCN(Cc2ccc(Nc3ncc(Cl)c(Nc4ccccc4S(=O)(=O)N(C)C)n3)cc2)CC1` [Positive drug 2 (TP0903), TP0903, reference compound], the IC50 in series [2] was 12 nM. In addition, in series [3] (10 mg-kg^1 by gavage), the Cmax (in general, the maximum level reached in the sampled fluid or tissue) is 26.8 ng/mL and the Tmax (in general, the time at which the peak concentration occurs) was 0.25 h. Also, in series [3], the AUC(0-t) came to 52.2 ng·h/mL. Further, in series [4], the response vs control in vivo at 5 mg/kg/day was determined as 42% and the inhibition in vivo at 5 mg/kg/day turned out to be 62%.

Turning to `CN1Cc2cccc(Nc3nc(Nc4ccc5c(c4)CC[C@@H](N4CCCC4)CC5)ncc3Cl)c2C1=O` [Example 28, (S)-7-((5-chloro-2-(((7-(pyrrolidin-1-yl)-6,7,8,9-tetrahydro-5H-benzo[7]annulen-2-yl)amino))pyrimidin-4-yl)amino)-2-methylisoindolin-1-one], the IC50 in series [5] came to 0.31 nM. In addition, in series [3] (10 mg-kg^1 by gavage), the highest level (Cmax) was 226 ng/mL and the Tmax was 8 h. In series [3], the AUC(0-t) came out at 3000 ng·h/mL. Besides, in series [4], the response vs control in vivo at 5 mg/kg/day is 5.9% and the inhibition in vivo at 5 mg/kg/day amounted to 104%.

Regarding `Clc1cnc(Nc2ccc3c(c2)CC[C@@H](N2CCCC2)CC3)nc1Nc1ccccc1-c1ncc[nH]1` [Example 18, (S)—N^4-(2-(1H-imidazol-2-yl)phenyl)-5-chloro-N^2-(7-(pyrrolidin-1-yl)-6,7,8,9-tetrahydro-5H-benzo[7]annulen-2-yl)pyrimidine-2,4-diamine], the IC50 in series [5] came out at 0.19 nM. Besides, in series [3] (10 mg-kg^1 by gavage), the Cmax stood at 249 ng/mL, the Tmax stood at 2 h and the half-life (usually the time needed for the level to fall by half in the phase considered) is 3.03 h. In addition, the AUC(0-t) in series [3] turned out to be 2300 ng·h/mL. Moreover, in series [4], the response vs control in vivo at 5 mg/kg/day stood at 37% and the inhibition in vivo at 5 mg/kg/day worked out at 71%.
